Results reported in PMC12489471, “A multi-dentate, cooperative interaction between endo- and exo-ribonucleases within the bacterial RNA degradosome” (Nucleic Acids Research, 2025).

Columns and labels:
PNPase core = settings: X-ray, PDB: 3GCM; cited from earlier work
Excerpt: Previous studies identified a PNPase binding motif encompassing residues 1039–1061 at the very C-terminus of E. coli RNase E (Fig. 1). […] Following the β-strand, there is a stretch of eight residues containing three prolines and two charged amino acids. The RNase E residues 1048–1061 will be referred to as ‘β1 motif’ hereafter (Fig. 2A). Multiple sequence alignment s ...

[1] = molecular target: the molecule itself; assay: cryo-EM structure; purified PNPase core and RNase E-muGFP-CHis mixed 1:2, complex separated on Superdex 200 Increase in 20 mM Tris–HCl pH 8.0, 25 mM MgCl2, 150 mM KCl, 1 mM TCEP; 8 mM CHAPSO; E. coli and S. enterica proteins

RNase E residues 1021–1061: peptide encompassing RNase E residues 1021–1061 in crystal structure with PNPase (EAPRHSDWQRPTFAFEGKGAAGGHTATHHASAAPARPQPVE; UniProt P21513 1021-1061, looked up, fragment)
binding mode in crystal structure (PNPase core): forms a β-strand that extends an exposed β-sheet of the PNPase core

B1: S. enterica PNPase core (domain or fragment, Salmonella enterica serovar Typhimurium, UniProt Q8ZLT3 1-552, looked up)
chain: MLNPIVRKFQYGQHTVTLETGMMARQATAAVMVSMDDTAVFVTVVGQKKAKPGQDFFPLTVNYQERTYAAGRIPGSFFRREGRPSEGETLIARLIDRPVRPLFPEGFVNEVQVIATVVSVNPQVNPDIVAMIGASAALSLSGIPFNGPIGAARVGYINDQYVLNPTQDELKESKLDLVVAGTEAAVLMVESEAELLSEDTMLGAVVFGHEQQQVVIQAINDLVKEAGKPRWDWQPEAVNDALNARVAALAESRLSDAYRITDKQERYAQVDVIKSETIEQLIAEDETLDANELGEILHAIEKNVVRSRVLAGEPRIDGREKDMIRGLDVRTGVLPRTHGSALFTRGETQALVTATLGTARDAQVLDELMGERTDSFLFHYNFPPYSVGETGMVGSPKRREIGHGRLAKRGVLAVMPDMDKFPYTVRVVSEITESNGSSSMASVCGASLALMDAGVPIKAAVAGIAMGLVKEGDNYVVLSDILGDEDHLGDMDFKVAGSRDGISALQMDIKIEGITKEIMQVALNQAKGARLHILGVMEQAINAPRGDISEFA
notes: polynucleotide phosphorylase (PNPase) core, Salmonella enterica serovar Typhimurium, aa 1–552; also called Salmonella typhimurium polynucleotide phosphorylase core; source: E. coli Evo21(DE3), purified (Ni-NTA, intein cleavage, HIC, Q, Superdex 200); not shown: Mycobacterium xenopi GyrA intein, C-terminal, cleaved; His8, C-terminal, cleaved
stoichiometry N [1]: 3
